Measurements reported in PubChem BioAssay AID256 (DTP/NCI, 2004).
Toxic doses and inconclusive results are not listed. Rule for the calls: active = survival T/C of 150% or more; inactive = T/C below 125% in these data.

Tested on: CD2F1 mice, L1210 leukemia ip, survival T/C
Experiment: NCI In Vivo Anticancer Drug Screen. Data for tumor model L1210 Leukemia (intraperitoneal) in CD2F1 (CDF1) mice
Settings: higher = longer survival
How it was run: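 Compound-dosed mice with transplantable tumor versus matched vehicle controls; endpoint ratio T/C reported.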

[1] = endpoint: mean survival time, dose: 100.0 mg/kg/injection, schedule: Q01DX009 (ip), vehicle: saline with Tween-80
[2] = endpoint: mean survival time, dose: 200.0 mg/kg/injection, schedule: Q01DX009 (ip), vehicle: saline with Tween-80
[3] = endpoint: mean survival time, dose: 400.0 mg/kg/injection, schedule: Q01DX009 (ip), vehicle: saline with Tween-80
[4] = endpoint: mean survival time, dose: 100.0 mg/kg/injection, schedule: Q01DX009 (ip), vehicle: Klucel (hydroxypropylcellulose) (HPC)
[5] = endpoint: mean survival time, dose: 200.0 mg/kg/injection, schedule: Q01DX009 (ip), vehicle: Klucel (hydroxypropylcellulose) (HPC)
[6] = endpoint: mean survival time, dose: 400.0 mg/kg/injection, schedule: Q01DX009 (ip), vehicle: Klucel (hydroxypropylcellulose) (HPC)
[7] = endpoint: mean survival time, dose: 100.0 mg/kg/injection, schedule: Q01DX001 (ip), vehicle: saline with Tween-80
[8] = endpoint: mean survival time, dose: 200.0 mg/kg/injection, schedule: Q01DX001 (ip), vehicle: saline with Tween-80
[9] = endpoint: mean survival time, dose: 400.0 mg/kg/injection, schedule: Q01DX001 (ip), vehicle: saline with Tween-80
[10] = endpoint: mean survival time, dose: 100.0 mg/kg/injection, schedule: Q04DX003 (ip), vehicle: saline with Tween-80
[11] = endpoint: mean survival time, dose: 200.0 mg/kg/injection, schedule: Q04DX003 (ip), vehicle: saline with Tween-80
[12] = endpoint: mean survival time, dose: 400.0 mg/kg/injection, schedule: Q04DX003 (ip), vehicle: saline with Tween-80
[13] = endpoint: mean survival time, dose: 100.0 mg/kg/injection, schedule: Q01DX009 (ip), vehicle: saline

Measured: T/C

Nc1nc(N)c2nc(CNc3ccc(C(=O)NCCCC(=O)O)cc3)cnc2n1 (tested in a mixture with another compound)
inactive: endpoint: mean survival time, dose: 1.0 mg/kg/injection, schedule: Q01DX009 (ip), vehicle: Klucel (hydroxypropylcellulose) (HPC) 97 % of control | endpoint: mean survival time, dose: 5.0 mg/kg/injection, schedule: Q01DX009 (ip), vehicle: Klucel (hydroxypropylcellulose) (HPC) 102 % of control | endpoint: mean survival time, dose: 10.0 mg/kg/injection, schedule: Q01DX009 (ip), vehicle: Klucel (hydroxypropylcellulose) (HPC) 108 % of control | endpoint: mean survival time, dose: 20.0 mg/kg/injection, schedule: Q01DX009 (ip), vehicle: Klucel (hydroxypropylcellulose) (HPC) 102 % of control

C1=C\C[n+]2ccccc2-c2cccc[n+]2C/1
inactive: endpoint: mean survival time, dose: 7.5 mg/kg/injection, schedule: Q01DX001 (ip), vehicle: saline 95 % of control | endpoint: mean survival time, dose: 7.5 mg/kg/injection, schedule: Q04DX003 (ip), vehicle: saline 96 % of control | endpoint: mean survival time, dose: 15.0 mg/kg/injection, schedule: Q01DX001 (ip), vehicle: saline 95 % of control | endpoint: mean survival time, dose: 15.0 mg/kg/injection, schedule: Q04DX003 (ip), vehicle: saline 97 % of control | endpoint: mean survival time, dose: 30.0 mg/kg/injection, schedule: Q01DX001 (ip), vehicle: saline 98 % of control

CCCCCCCCCCCCCCC[N+]1(C)CCSCC1
inactive: endpoint: mean survival time, dose: 25.0 mg/kg/injection, schedule: Q01DX001 (ip), vehicle: saline with Tween-80 100 % of control | endpoint: mean survival time, dose: 50.0 mg/kg/injection, schedule: Q01DX001 (ip), vehicle: saline with Tween-80 95 % of control

Cc1ccc(N=C(N)NC#N)cc1
inactive: [1] 91 % of control | [2] 93 % of control | [3] 91 % of control

COC(=O)c1cccc2c(Br)cc3ccccc3c12
inactive: [4] 98 % of control | endpoint: mean survival time, dose: 100.0 mg/kg/injection, schedule: Q04DX003 (ip), vehicle: Klucel (hydroxypropylcellulose) (HPC) 102 % of control | [5] 103 % of control | endpoint: mean survival time, dose: 200.0 mg/kg/injection, schedule: Q04DX003 (ip), vehicle: Klucel (hydroxypropylcellulose) (HPC) 98 % of control | [6] 110 % of control | endpoint: mean survival time, dose: 400.0 mg/kg/injection, schedule: Q04DX003 (ip), vehicle: Klucel (hydroxypropylcellulose) (HPC) 108 % of control

NC(=O)C1C(c2ccccc2)=C(c2ccccc2)c2ccccc21 (centres undefined)
inactive: [7] 87 % of control | [8] 87 % of control | [9] 87 % of control

CCc1cc(C)cc(OC(=O)Nc2ccc(Cl)cc2)c1
inactive: [1] 93 % of control | [10] 107 % of control | [2] 100 % of control | [11] 93 % of control | [3] 96 % of control | [12] 91 % of control

O=[Te]=O
inactive: endpoint: median survival time, dose: 3.12 mg/kg/injection, schedule: Q01DX009 (ip), vehicle: saline 100 % of control | endpoint: median survival time, dose: 6.25 mg/kg/injection, schedule: Q01DX009 (ip), vehicle: saline 98 % of control | endpoint: median survival time, dose: 10.0 mg/kg/injection, schedule: Q01DX009 (ip), vehicle: saline 101 % of control | endpoint: median survival time, dose: 12.5 mg/kg/injection, schedule: Q01DX009 (ip), vehicle: saline 100 % of control | endpoint: median survival time, dose: 20.0 mg/kg/injection, schedule: Q01DX009 (ip), vehicle: saline 97 % of control

O=c1[nH]c(/C=C/c2ccccc2)c([N+](=O)[O-])c(=O)[nH]1
inactive: [7] 95 % of control | [8] 90 % of control | [9] 90 % of control

BrC1CCCCCCC1Br (centres undefined)
inactive: endpoint: mean survival time, dose: 25.0 mg/kg/injection, schedule: Q01DX009 (ip), vehicle: saline 96 % of control | endpoint: mean survival time, dose: 50.0 mg/kg/injection, schedule: Q01DX009 (ip), vehicle: saline 94 % of control | [13] 93 % of control

FC(F)(F)c1ccc2nc(CI)c(CI)nc2c1
inactive: endpoint: mean survival time, dose: 1.5 mg/kg/injection, schedule: Q01DX009 (ip), vehicle: saline with Tween-80 104 % of control | endpoint: mean survival time, dose: 3.0 mg/kg/injection, schedule: Q01DX009 (ip), vehicle: saline with Tween-80 110 % of control | endpoint: mean survival time, dose: 6.0 mg/kg/injection, schedule: Q01DX009 (ip), vehicle: saline with Tween-80 96 % of control | endpoint: mean survival time, dose: 12.0 mg/kg/injection, schedule: Q01DX009 (ip), vehicle: saline with Tween-80 104 % of control | endpoint: mean survival time, dose: 24.0 mg/kg/injection, schedule: Q01DX009 (ip), vehicle: saline with Tween-80 88 % of control

Nc1nc(-c2ccccc2)c(CCCNc2ccc(C(=O)NC(CCC(=O)O)C(=O)O)cc2)c(=O)[nH]1 (centres undefined)
inactive: [13] 94 % of control | endpoint: mean survival time, dose: 200.0 mg/kg/injection, schedule: Q01DX009 (ip), vehicle: saline 96 % of control

CCOC(=O)CCN1C(=O)NC(C)(c2ccccc2)C1=O (centres undefined)
inactive: [4] 100 % of control | [5] 98 % of control | [6] 114 % of control

CCCCOC(=O)c1ccc(NC(=O)NCCC)cc1
inactive: endpoint: mean survival time, dose: 100.0 mg/kg/injection, schedule: Q04DX003 (ip), vehicle: saline 101 % of control | endpoint: mean survival time, dose: 200.0 mg/kg/injection, schedule: Q04DX003 (ip), vehicle: saline 101 % of control | endpoint: mean survival time, dose: 400.0 mg/kg/injection, schedule: Q04DX003 (ip), vehicle: saline 97 % of control

O=C(OCc1ccccc1)c1ccccc1
inactive: endpoint: mean survival time, dose: 100.0 mg/kg/injection, schedule: Q04DX002 (ip), vehicle: Klucel (hydroxypropylcellulose) (HPC) 90 % of control | endpoint: mean survival time, dose: 200.0 mg/kg/injection, schedule: Q04DX002 (ip), vehicle: Klucel (hydroxypropylcellulose) (HPC) 100 % of control | endpoint: mean survival time, dose: 400.0 mg/kg/injection, schedule: Q04DX002 (ip), vehicle: Klucel (hydroxypropylcellulose) (HPC) 90 % of control

COc1cc2c(cc1OC)C1CC(=O)C3=C(CCCC3)N1CC2 (centres undefined)
inactive: [10] 101 % of control | [11] 95 % of control | [12] 89 % of control
